The source of these data is ChEMBL document CHEMBL4483862, “Open-source discovery of chemical leads for next-generation chemoprotective antimalarials” (2018).

Each structure is given as a SMILES string. Bounds are passed on as bounds.

The test system of this assay is Plasmodium berghei. In words: Luciferase/luciferin-expressing antifolate-resistant parasites were used to infect a culture of HepG2 cells that were pre-incubated with compounds. Infected hepatocytes emit light due to the luciferase reaction. Assay results are presented as the percent inhibition of light emission compared to control. […]. Type of assay: functional. To be noted: sporozoite; for IC90: read-out: LUCIFERASE INFECTION ASSAY - IC90.

The mark [1] stands for this setting: read-out: LUCIFERASE INFECTION ASSAY - IC50.

On to `CN(C)CCNC(=O)c1ccc(-c2cn3c(-c4ccc5c(c4)OCO5)cnc3cn2)cc1`, for which the 90% effect concentration (IC90) (commonly the concentration needed for an effect of 90%) was over 7.68 µM. For the same compound, where the note is “PBLUC_HILL_SLOPE 12, PBLUC_R_SQUARED 0.209, read-out: LUCIFERASE INFECTION ASSAY - IC50”, the concentration for half-maximal inhibition (IC50) (in general, the midpoint of a concentration-inhibition curve) is over 7.68 µM.
Take `CCCCc1ccc(C(=O)Nc2nc3ccccn3c2C(=O)NCCCN2CCOCC2)cc1`: the IC90 was over 7.12 µM. In addition, the IC50 (PBLUC_HILL_SLOPE 0.361, PBLUC_R_SQUARED 0.518, read-out: LUCIFERASE INFECTION ASSAY - IC50) came to 2.21 µM.
Regarding `O=C(N/N=C/c1cc(Br)ccc1O)c1ccccc1Oc1ccccc1`, the 90% effect concentration (IC90) is 7.69 µM. Besides, the half-maximal inhibitory concentration (IC50) (HEPG2TOX_HILL_SLOPE 3.72, HEPG2TOX_R_SQUARED 0.537, PBLUC_HILL_SLOPE 21.6, PBLUC_R_SQUARED 0.145, read-out: LUCIFERASE INFECTION ASSAY - IC50) was found to be 6.95 µM.
For the compound `CC(C)(C)c1ccc(-c2csc(NC(=O)c3cnccn3)n2)cc1`, the IC90 was over 10 µM. Moreover, the IC50 (HEPG2TOX_HILL_SLOPE 8.57, HEPG2TOX_R_SQUARED 0.595, PBLUC_HILL_SLOPE 12.7, PBLUC_R_SQUARED 0.201, read-out: LUCIFERASE INFECTION ASSAY - IC50) came out at 9.05 µM.
For `CNc1ccccc1C(C)(C)c1cc(-c2ccc(F)cc2)no1`, the concentration for an effect of 90% (IC90) was over 10 µM. Further, under setting [1], the IC50 is 8.62 µM.
Turning to `N#CC(C#N)=C/C=C(/Sc1ccc(F)c(Cl)c1)c1ccc(Cl)cc1`, the IC90 amounted to 7.65 µM. Besides, the IC50 (FFLUC_HILL_SLOPE 3.34, FFLUC_R_SQUARED 0.746, HEPG2TOX_HILL_SLOPE 5.06, HEPG2TOX_R_SQUARED 0.992, PBLUC_HILL_SLOPE 1.74, PBLUC_R_SQUARED 0.619, read-out: LUCIFERASE INFECTION ASSAY - IC50) stood at 2.17 µM.
Turning to `O=C(Nc1ccc(N2CCCCC2)c(C(F)(F)F)c1)c1ccc(-n2nncc2-c2ccc(Cl)cc2)cc1`, the 90% effect concentration (IC90) is over 10 µM. Moreover, under “PBLUC_HILL_SLOPE 1.22, PBLUC_R_SQUARED 0.481, read-out: LUCIFERASE INFECTION ASSAY - IC50”, the IC50 is 4.69 µM.
For `O=S(=O)(NC1CCN(c2nn3cc(-c4ccccc4)nc3s2)CC1)c1cccs1`, the IC90 stood at 3.14 µM. The 50% inhibitory concentration (IC50) (HEPG2TOX_HILL_SLOPE 6.79, HEPG2TOX_R_SQUARED 0.144, PBLUC_HILL_SLOPE 1.24, PBLUC_R_SQUARED 0.735, read-out: LUCIFERASE INFECTION ASSAY - IC50) came out at 0.534 µM.
On to `Cc1c(-n2nnnc2SCC(C)C)c(=O)n(-c2ccccc2)n1C`, for which the IC90 is over 10 µM. Also, under setting [1], the half-inhibitory concentration (IC50) was over 10 µM.
Regarding `COc1ccc(-[n+]2c(C)cn3c2CCc2ccccc2-3)cc1`, the IC90 amounted to 3.96 µM. Further, where the note is “HEPG2TOX_HILL_SLOPE 1.53, HEPG2TOX_R_SQUARED 0.982, PBLUC_HILL_SLOPE 13.1, PBLUC_R_SQUARED 0.299, read-out: LUCIFERASE INFECTION ASSAY - IC50”, the IC50 came out at 3.35 µM.
In the case of `CN1CCN(c2ccc(-c3cn4c(-c5ccc(Oc6ccccc6)cc5)cnc4cn3)cn2)CC1`, the IC90 was over 7.13 µM. The concentration for half-maximal inhibition (IC50) under setting [1] was 6.77 µM.
In the same order, the values of `COc1ccc(-c2cnc3sc(NCc4ccncc4)nn23)cc1OC` are over 8.98 µM and over 8.98 µM.
`Cc1ccc2nc(NC(=O)c3cc(F)ccc3F)c(C(=O)NCC(C)C)n2c1`: the concentration for an effect of 90% (IC90) came to 3.13 µM. Further, the half-maximal inhibitory concentration (IC50) (HEPG2TOX_HILL_SLOPE 8.58, HEPG2TOX_R_SQUARED 0.935, PBLUC_HILL_SLOPE 15.1, PBLUC_R_SQUARED 0.738, read-out: LUCIFERASE INFECTION ASSAY - IC50) stood at 2.71 µM.
As for `Cc1cc(N2CCN(C)CC2)n2ncc(-c3ccc(F)cc3)c2n1`, the IC90 was over 10.1 µM. For the same compound, the IC50 (PBLUC_HILL_SLOPE 0.664, PBLUC_R_SQUARED 0.928, read-out: LUCIFERASE INFECTION ASSAY - IC50) worked out at 0.571 µM.
`Cc1noc(C)c1C(=O)OCC(=O)c1cc(C)n(-c2ccccc2F)c1C`: the 90% effect concentration (IC90) was over 10 µM. For the same compound, for the setting “PBLUC_HILL_SLOPE 1.73, PBLUC_R_SQUARED 0.622, read-out: LUCIFERASE INFECTION ASSAY - IC50”, the IC50 came out at 4.2 µM.
Turning to `COC(=O)c1c(-c2cccs2)csc1NC(=O)CSc1cc(C)c2ccccc2n1`, the IC90 was over 10 µM. Moreover, the IC50 under setting [1] is over 10 µM.
Take `Cc1ccc(NC(=S)NCc2ccccn2)cc1C`: the IC90 is over 12.2 µM. In addition, the 50% inhibitory concentration (IC50) under setting [1] is over 12.2 µM.
As to `Cc1c2cnn(C)c(=O)c2c(C)n1-c1ccccc1`, the IC90 is over 13 µM. For the same compound, the IC50 under setting [1] was over 13 µM.
As for `CN1CCN(c2ccc(NC(=O)c3csc4c3CCCC4)cc2)CC1`, the IC90 came to 4.98 µM. Moreover, the IC50 (PBLUC_HILL_SLOPE 0.882, PBLUC_R_SQUARED 0.629, read-out: LUCIFERASE INFECTION ASSAY - IC50) came to 0.413 µM.
Take `O=C(Nc1ccc2c(c1)nc1n2CCCCC1)C1CC=CCC1` (stereo not drawn): the IC90 is over 10 µM. Also, under setting [1], the 50% inhibitory concentration (IC50) was over 10 µM.
Take `CC(Sc1nnc(-c2cccs2)n1C(C)C1CC2CCC1C2)C(=O)N1CCCc2ccccc21` (stereo not drawn): the IC90 was over 10 µM. The half-maximal inhibitory concentration (IC50) (FFLUC_HILL_SLOPE 9.01, FFLUC_R_SQUARED 0.23, read-out: LUCIFERASE INFECTION ASSAY - IC50) was over 10 µM.
For `CC(C)(C)c1cc(C(=O)Nc2ccccc2)n(Cc2ccc(Cl)cc2Cl)n1`, the IC90 was over 8.2 µM. Further, the IC50 (PBLUC_HILL_SLOPE 3.9, PBLUC_R_SQUARED 0.166, read-out: LUCIFERASE INFECTION ASSAY - IC50) was 5.99 µM.
Take `CCOC(=O)C1=C(Nc2cccc(Cl)c2)S/C(=C\c2ccc(C)cc2)C1=O`: the 90% effect concentration (IC90) is over 8.25 µM. In addition, the IC50 under setting [1] is over 8.25 µM.
In the case of `CNC(=O)c1nn(CC2CCCCC2)c2c1CC(NC1CCN(Cc3ccccc3)CC1)CC2` (stereo not drawn), the IC90 is over 7.12 µM. In addition, the IC50 (PBLUC_HILL_SLOPE 1.91, PBLUC_R_SQUARED 0.276, read-out: LUCIFERASE INFECTION ASSAY - IC50) worked out at 6.52 µM.
For `O=C(Cc1ccc(O)cc1)N1CCc2nc(NCc3cccc(Oc4ccccc4)c3)ncc2C1`, the IC90 was 4.97 µM. For the same compound, the half-maximal inhibitory concentration (IC50) (HEPG2TOX_HILL_SLOPE 1.26, HEPG2TOX_R_SQUARED 0.949, PBLUC_HILL_SLOPE 2.67, PBLUC_R_SQUARED 0.466, read-out: LUCIFERASE INFECTION ASSAY - IC50) amounted to 2.18 µM.
Take `O=c1c2cc(Br)cc(Br)c2nc(-c2ccccc2)n1-c1cc(C(F)(F)F)cc(C(F)(F)F)c1`: the concentration for an effect of 90% (IC90) is over 5.57 µM. The concentration for half-maximal inhibition (IC50) under setting [1] was over 5.57 µM.
As for `Clc1ccc(-c2nc3ncc(Br)cc3[nH]2)cc1`, the IC90 was 3.76 µM. Moreover, the half-maximal inhibitory concentration (IC50) (FFLUC_HILL_SLOPE 1.95, FFLUC_R_SQUARED 0.684, PBLUC_HILL_SLOPE 3.28, PBLUC_R_SQUARED 0.422, read-out: LUCIFERASE INFECTION ASSAY - IC50) was 1.92 µM.
Consider `O=c1cc(CN2CCN(C(c3ccc(F)cc3)c3ccc(F)cc3)CC2)nc2ccc(Cl)cn12`, for which the IC90 was 9.88 µM. For the same compound, for the setting “PBLUC_HILL_SLOPE 16, PBLUC_R_SQUARED 0.275, read-out: LUCIFERASE INFECTION ASSAY - IC50”, the concentration for half-maximal inhibition (IC50) came out at 8.61 µM.
Take `Cc1cc(OCCN(C)C)cc2c1C1CCC3(C)C(=O)CCC3C1C=C2` (stereo not drawn): the concentration for an effect of 90% (IC90) was over 9.34 µM. For the same compound, the IC50 (FFLUC_HILL_SLOPE 6.52, FFLUC_R_SQUARED 0.182, PBLUC_HILL_SLOPE 2.32, PBLUC_R_SQUARED 0.511, read-out: LUCIFERASE INFECTION ASSAY - IC50) came to 5.67 µM.
In the case of `O=c1[nH]nc(SCc2ccc([N+](=O)[O-])cc2)n1CC1CCCO1` (stereo not drawn), the IC90 is over 10 µM. For the same compound, the half-maximal inhibitory concentration (IC50) under setting [1] is over 10 µM.
On to `CCc1cccc2c(C(=O)CN3CCC(C(=O)Nc4ccc5c(c4)OCO5)CC3)c[nH]c12`, for which the IC90 is over 10 µM. Further, the IC50 under setting [1] is over 10 µM.
Take `CCCCC#CC1(O)c2ccccc2C(=O)N1c1ccccc1` (stereo not drawn): the concentration for an effect of 90% (IC90) is 9.4 µM. Besides, the IC50 (HEPG2TOX_HILL_SLOPE 16.6, HEPG2TOX_R_SQUARED 0.582, PBLUC_HILL_SLOPE 7.49, PBLUC_R_SQUARED 0.197, read-out: LUCIFERASE INFECTION ASSAY - IC50) amounted to 7.01 µM.
On to `CC(=O)Nc1ccc(OCc2ccccc2C(F)(F)F)cc1`, for which the IC90 came to 5.57 µM. Also, where the note is “PBLUC_HILL_SLOPE 1.68, PBLUC_R_SQUARED 0.57, read-out: LUCIFERASE INFECTION ASSAY - IC50”, the concentration for half-maximal inhibition (IC50) is 1.51 µM.
Consider `c1ccc(OCCN2CCN(c3ccc(-c4nc5ccccc5[nH]4)cn3)CC2)cc1`, for which the IC90 is over 10 µM. Also, the IC50 (PBLUC_HILL_SLOPE 16.1, PBLUC_R_SQUARED 0.136, read-out: LUCIFERASE INFECTION ASSAY - IC50) came to 9.41 µM.
For `Cc1ccc(C(O)c2nnc(Nc3cc(C(F)(F)F)ccc3F)s2)cc1` (stereo not drawn), the IC90 was over 10 µM. Also, the half-inhibitory concentration (IC50) under setting [1] is over 10 µM.
As for `O=C1C(c2ccccc2)=C(Nc2cc(C(F)(F)F)cc(C(F)(F)F)c2)c2ccccc21`, the IC90 was found to be 0.879 µM. Besides, the IC50 (FFLUC_HILL_SLOPE 4.26, FFLUC_R_SQUARED 0.731, HEPG2TOX_HILL_SLOPE 18.3, HEPG2TOX_R_SQUARED 0.933, PBLUC_HILL_SLOPE 2.24, PBLUC_R_SQUARED 0.855, read-out: LUCIFERASE INFECTION ASSAY - IC50) is 0.329 µM.
Turning to `C=CCn1c(SCC(=O)Nc2nnc(-c3ccccc3)o2)nc2cc(Cl)ccc2c1=O`, the IC90 is over 10 µM. Under setting [1], the IC50 was over 10 µM.
As for `CCOc1ccc(/C=C/C2=Cc3c(sc(NC(=O)COC(=O)c4cccc(S(=O)(=O)N5CCc6ccccc65)c4)c3C#N)C(C)(C)C2)cc1`, the concentration for an effect of 90% (IC90) was over 10 µM. Also, the IC50 (FFLUC_HILL_SLOPE 15.6, FFLUC_R_SQUARED 0.606, read-out: LUCIFERASE INFECTION ASSAY - IC50) was over 10 µM.
On to `O=C(Nc1nonc1-c1cccs1)c1sc2cccc(Cl)c2c1Cl`, for which the IC90 was 4.63 µM. Besides, the concentration for half-maximal inhibition (IC50) under setting [1] is 3.26 µM.
